# Measurements published in US9321738B2, “N-alkyltriazole compounds as LPAR antagonists” (Hoffmann-La Roche Inc., priority 2012, dated 2016).
# Columns and labels:
# [1] = biological target: human recombinant LPA1 Lysophospholipid receptor (Homo sapiens (Human), UniProt Q92633); experiment: Calcium flux assay using FLIPR, LPAR1 antagonist activity; assay type: cell-based; conditions: for IC50: ChemiScreen stable cell line, antagonist mode, calcium flux
# Description: (§1) Calcium Flux Assay Using Fluorometric Imaging Plate Reader (FLIPR)
# Cell Culture Conditions: The ChemiScreen Calcium-optimized stable cell line containing the human recombinant LPA1 Lysophospholipid receptor was purchased from Chemicon International, Inc./Millipore. The cells were cultured in DMEM-high glucose supplemented with 10% fetal bovine serum, 2 mM glutamine, 100 U/mL penicillin/100 μg/mL streptomycin, 1× non-essential amino acids, 10 mM HEPES and 0.25 mg/mL Geneticin. Cells were harvested with trypsin-EDTA and counted using ViaCount reagent. The cell suspension volume was adjusted to 2.0×10^5 cells/mL with complete growth media. Aliquots of 50 μL were dispensed into 384 well black/clear tissue culture treated plates (BD) and the microplates were placed in a 37° C. incubator overnight. The following day plates were used in the assay.
# (§2) Dye Loading and Assay: Loading Buffer (FLIPR Calcium-4, Molecular Devices) was prepared by dissolving the contents of one bottle into 100 mL Hank's Balanced Salt Solution containing 20 mM HEPES and 2.5 mM probenecid. Plates were loaded onto Biotek plate washer and growth media was removed and replaced with 20 μL of Hank's Balanced Salt Solution containing 20 mM HEPES and 2.5 mM probenecid, followed by 25 μL of Loading Buffer. The plates were then incubated for 30 minutes at 37° C.
# (§3) During the incubation, test compounds were prepared by adding 90 μL of HBSS/20 mM HEPES/0.1% BSA buffer to 2 μL of serially diluted compounds. To prepare serial dilutions, 10 mM stocks of compounds were prepared in 100% DMSO. The compound dilution plate was set up as follows: well #1 received 29 μL of stock compound and 31 μL DMSO. Wells 2-10 received 40 μL of DMSO. After mixing, 20 μL of solution from well #1 was transferred into well #2, followed by 1:3 serial dilutions out 10 steps. 2 μL of diluted compound was transferred into duplicate wells of 384 well “assay plate” and then 90 μL of buffer was added.
# (§4) After incubation, both the cell and “assay” plates were brought to the FLIPR and 20 μL of the diluted compounds were transferred to the cell plates by the FLIPR. Compound addition was monitored by the FLIPR to detect any agonist activity of the compounds. Plates were then incubated for 30 minutes at room temperature protected from light. After the incubation, plates were returned to the FLIPR and 20 μL of 4.5× concentrated agonist was added to the cell plates. During the assay, fluorescence readings were taken simultaneously from all 384 wells of the cell plate every 1.5 seconds. Five readings were taken to establish a stable baseline, then 20 μL of sample was rapidly (30 μL/sec) and simultaneously added to each well of the cell plate. The fluorescence was continuously monitored before, during and after sample addition for a total elapsed time of 100 seconds. Responses (increase in peak fluorescence) in each well following agonist addition was determined. The initial fluorescence reading from each well, prior to ligand stimulation, was used as zero baseline value for the data from that well. The responses were expressed as % inhibition of the buffer control. The IC50 value, defined as the concentration of a compound that is required for 50% inhibition of the buffer control, was calculated by fitting the percent inhibition data for 10 concentrations to a sigmoidal dose-response (4 parameter logistic) model using Genedata Condoseo program [model 205, F(x)=(A+(B−A)/(1+((C/x)^D))))].
# [2] = biological target: LPAR3 (Homo sapiens (Human), UniProt Q9UBY5); experiment: Calcium flux assay using FLIPR, LPAR3 antagonist activity; assay type: cell-based; conditions: for IC50: antagonist mode, calcium flux
# Description: as §1, §2, §3, §4
# Sequence of LPAR3 (Q9UBY5 whole entry, species assumed): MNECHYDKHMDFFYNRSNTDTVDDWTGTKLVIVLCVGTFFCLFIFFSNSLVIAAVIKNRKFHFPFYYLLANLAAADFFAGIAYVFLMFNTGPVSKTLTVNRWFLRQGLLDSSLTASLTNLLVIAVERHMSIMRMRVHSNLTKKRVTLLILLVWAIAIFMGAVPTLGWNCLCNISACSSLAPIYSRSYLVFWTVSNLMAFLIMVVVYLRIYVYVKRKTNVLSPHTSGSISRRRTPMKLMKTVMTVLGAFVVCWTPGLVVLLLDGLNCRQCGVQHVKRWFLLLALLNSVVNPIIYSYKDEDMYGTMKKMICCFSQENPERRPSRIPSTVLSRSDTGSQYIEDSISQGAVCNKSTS
# Sequence of human recombinant LPA1 Lysophospholipid receptor (Q92633 whole entry): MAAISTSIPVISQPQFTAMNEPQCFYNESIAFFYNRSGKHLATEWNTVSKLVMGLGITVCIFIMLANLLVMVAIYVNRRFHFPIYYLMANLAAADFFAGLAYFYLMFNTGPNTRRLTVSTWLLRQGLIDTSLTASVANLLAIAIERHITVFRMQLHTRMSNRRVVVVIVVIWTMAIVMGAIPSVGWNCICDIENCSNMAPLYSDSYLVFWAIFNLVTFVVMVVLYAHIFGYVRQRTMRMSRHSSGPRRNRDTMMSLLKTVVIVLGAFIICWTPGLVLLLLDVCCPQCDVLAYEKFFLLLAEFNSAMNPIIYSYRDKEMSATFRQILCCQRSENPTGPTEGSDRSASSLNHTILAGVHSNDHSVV
IC50 [1] [µM],IC50 [2] [µM],inhibition at 30 µM [2] [%],inhibition at 30 µM ([1]; at 30 μM) [%],SMILES
0.046,0.279,–,–,"CC(OC(=O)Nc1c(-c2ccc(-c3ccc(C4(C(=O)O)CC4)cc3)cc2)nnn1C)c1cccc(C(F)(F)F)c1 (racemic) [Example 4, 1-(4′-{1-Methyl-5-[1-(3-trifluoromethyl-phenyl)-ethoxycarbonylamino]-1H-[1,2,3]triazol-4-yl}-biphenyl-4-yl)-cyclopropanecarboxylic acid]"
0.07,> 30,–,–,"CC(C)[C@@H](C)OC(=O)Nc1c(-c2ccc(-c3ccc(C4(C(=O)O)CC4)cc3)cc2)nnn1C [Example 7, 1-{4′-[5-((R)-1,2-Dimethyl-propoxycarbonylamino)-1-methyl-1H-[1,2,3]triazol-4-yl]biphenyl-4-yl}-cyclopropanecarboxylic acid]"
0.018,27.4,62,–,"C[C@@H](OC(=O)Nc1c(-c2ccc(-c3ccc(C4(C(=O)O)CC4)cc3)cc2F)nnn1C)c1ccccc1 [Example 11, 1-{3′-Fluoro-4′-[1-methyl-5-((R)-1-phenyl-ethoxycarbonylamino)-1H-[1,2,3]triazole-4-yl]-biphenyl-4-yl}-cyclopropanecarboxylic acid]"
0.0188,2.31,–,–,"C[C@@H](OC(=O)Nc1c(-c2ccc(-c3ccc(C4(C(=O)NS(C)(=O)=O)CC4)cc3)cc2)nnn1C)c1ccccc1 [Example 12, {5-[4′-(1-Methanesulfonylaminocarbonyl-cyclopropyl)-biphenyl-4-yl]-3-methyl-3H-[1,2,3]triazol-4-yl}-carbamic acid (R)-1-phenyl-ethyl ester]"
21.9,> 30,–,52.3,"C[C@@H](OC(=O)Nc1c(-c2ccc(Br)cc2)nnn1C)c1ccccc1 [Example 1, [5-(4-Bromo-phenyl)-3-methyl-3H-[1,2,3]triazol-4-yl]-carbamic acid (R)-1-phenyl-ethyl ester]"
0.018,0.132,–,–,"C[C@@H](OC(=O)Nc1c(-c2ccc(-c3ccc(C4(C(=O)O)CC4)cc3)cc2)nnn1C)c1cccc(C(F)(F)F)c1 [Example 6, 1-(4′-{1-Methyl-5-[(R)-1-(3-trifluoromethyl-phenyl)-ethoxycarbonylamino]-1H-[1,2,3]triazol-4-yl}-biphenyl-4-yl)-cyclopropanecarboxylic acid]"
2.66,6.31,–,–,"C[C@H](OC(=O)Nc1c(-c2ccc(-c3ccc(C4(C(=O)O)CC4)cc3)cc2)nnn1C)c1cccc(C(F)(F)F)c1 [Example 5, 1-(4′-{1-Methyl-5-[(S)-1-(3-trifluoromethyl-phenyl)-ethoxycarbonylamino]-1H-[1,2,3]triazol-4-yl}-biphenyl-4-yl)-cyclopropanecarboxylic acid]"
0.058,18.6,68,–,"C[C@@H](OC(=O)Nc1c(-c2ccc(C3CCC(CC(=O)O)CC3)cc2)nnn1C)c1ccccc1 (stereo partly drawn) [Example 14, (4-{4-[1-Methyl-5-((R)-1-phenyl-ethoxycarbonylamino)-1H-[1,2,3]triazol-4-yl]-phenyl}-cyclohexyl)-acetic acid]"
0.048,21.9,58.2,–,"C[C@@H](OC(=O)Nc1c(-c2ccc(-c3ccc(CC(=O)O)cc3)cc2)nnn1C)c1ccccc1 [Example 3, {4′-[1-Methyl-5-((R)-1-phenyl-ethoxycarbonylamino)-1H-[1,2,3]triazol-4-yl]-biphenyl-4-yl}-acetic acid]"
0.018,2.29,–,–,"C[C@@H](OC(=O)Nc1c(-c2ccc(-c3ccc(C4(C(=O)O)CC4)cc3)cc2)nnn1C)c1ccccc1 [Example 2, 1-{4′-[1-Methyl-5-((R)-1-phenyl-ethoxycarbonylamino)-1H-[1,2,3]triazol-4-yl]-biphenyl-4-yl}-cyclopropanecarboxylic acid]"
4.45,18.4,62,–,"C[C@@H](OC(=O)Nc1c(-c2ccc(-c3cccc(C4(C(=O)O)CC4)c3)cc2)nnn1C)c1ccccc1 [Example 9, (R)-1-(4′-(1-Methyl-5-((1-phenylethoxy)carbonylamino)-1H-1,2,3-triazol-4-yl)biphenyl-3-yl)cyclopropanecarboxylic acid]"
> 30,> 30,–,–,"C[C@@H](OC(=O)Nc1nnn(C)c1-c1ccc(-c2ccc(C3(C(=O)O)CC3)cc2)cc1)c1ccccc1 [Example 8, 1-{4′-[3-Methyl-5-((R)-1-phenyl-ethoxycarbonylamino)-3H-[1,2,3]triazol-4-yl]-biphenyl-4-yl}-cyclopropanecarboxylic acid]"
0.0245,0.0657,–,–,"C[C@@H](OC(=O)Nc1c(-c2ccc(-c3ccc(C4(C(=O)NS(C)(=O)=O)CC4)cc3)cc2)nnn1C)c1cccc(C(F)(F)F)c1 [Example 13, {5-[4′-(1-Methanesulfonylaminocarbonyl-cyclopropyl)-biphenyl-4-yl]-3-methyl-3H-[1,2,3]triazol-4-yl}-carbamic acid (R)-1-(3-trifluoromethyl-phenyl)-ethyl ester]"
> 30,> 30,–,–,"COC(=O)C1(c2ccc(-c3ccc(-c4nnn(C)c4NC(=O)O[C@H](C)c4ccccc4)c(F)c3)cc2)CC1 [Example 10, 1-{3′-Fluoro-4′-[1-methyl-5-((R)-1-phenyl-ethoxycarbonylamino)-1H-[1,2,3]triazole-4-yl]-biphenyl-4-yl}-cyclopropanecarboxylic acid methyl ester]"
